The values below come from US11840546B2, “Imidazopyridazine compounds and uses thereof” (Incyte Corporation, priority 2020, dated 2023).

One assay addresses ALK2 (aa 147-end) (Homo sapiens (Human), UniProt Q04771). Description: ALK2 HTRF Assay. The following applies: HTRF enzymatic assay, 3 μM ATP, 0.5 nM ALK2, 25° C., 2 hr. It is filed as biochemical. On the procedure: ALK2 (aa 147-end) was obtained from BPS biosciences. The enzymatic assays were conducted in white 384-well polystyrene plates in a final volume of 8 μL. The inhibitors were serially diluted in DMSO and added to the plate wells prior to addition of the other reaction components. The assays were carried out at 25° C. in the assay buffer (50 mM HEPES, pH 7.0, 10% Glycerol, 0.01% Brij50, 10 mM MgCl2, 1 mM EGTA, 5 mM DTT, and 0.01% BSA), containing 50 nM LANCE Ultra ULight™-DNA Topoisomerase 2-alpha peptide (Perkin Elmer TRF0130), and 3 μM ATP. The final concentration of DMSO in the assay was […] and the enzyme concentration was 0.5 nM for ALK2. The reactions were allowed to proceed for 2 hr for ALK2 after which, the reaction was quenched by addition of EDTA at a final concentration of 20 mM along with 1.5 nM LANCE Ultra Europium-anti-phospho-DNA Topoisomerase 2-alpha (Thr1342) antibody (Perkin Elmer TRF0218). The reaction was incubated at 25° C. for 1 hr and read on a PHERAstar FS plate reader (BMG Labtech). IC50 determination was performed by fitting percent control activity versus the log of the inhibitor concentration using the IDBS XLFit and GraphPad Prism 5.0 software.
(In general: TR-FRET usually uses a lanthanide donor and a delayed reading to cut background.)

Another assay relates to ALK2 mutant DIPG cell. The note with it: ALK2 mutant DIPG cells; cited from earlier work.

In general, IC50 refers to the concentration needed to halve the response being measured. Higher therefore signals weaker potency.

Some results are limits rather than exact numbers.

Sequence of ALK2 (aa 147-end) (Q04771 147-509 limits assumed): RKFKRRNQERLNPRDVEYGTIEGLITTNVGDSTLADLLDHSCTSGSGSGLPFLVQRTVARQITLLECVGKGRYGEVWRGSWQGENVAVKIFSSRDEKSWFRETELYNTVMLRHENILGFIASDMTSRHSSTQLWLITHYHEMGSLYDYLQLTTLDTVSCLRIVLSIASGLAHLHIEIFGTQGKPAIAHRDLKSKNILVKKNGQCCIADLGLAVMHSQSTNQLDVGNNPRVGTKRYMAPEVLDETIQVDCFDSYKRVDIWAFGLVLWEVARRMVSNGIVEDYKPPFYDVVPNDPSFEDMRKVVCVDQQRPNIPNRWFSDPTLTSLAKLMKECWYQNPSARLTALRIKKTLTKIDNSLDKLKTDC

Consider `Cc1cnn(-c2ccc3c(-c4cnc5cc(-c6ccc(CN7CC8CCC7CC8)cc6)c(C)nn45)ccnc3n2)n1` [Example 3, 2-(4-(6-Methyl-3-(7-(4-methyl-2H-1,2,3-triazol-2-yl)-1,8-naphthyridin-4-yl)imidazo[1,2-b]pyridazin-7-yl)benzyl)-2-azabicyclo[2.2.2]octane], for which the IC50 against ALK2 (aa 147-end) was at most 1 nM.
On to `Cc1cnn(-c2ccc3c(-c4cnc5cc(-c6ccc([C@]78C[C@H]7CN(C7CCOCC7)C8)cc6)c(C)nn45)ccnc3n2)n1` (stereo in doubt) [Example 4, 2-(4-Methyl-2H-1,2,3-triazol-2-yl)-5-(6-methyl-7-(4-((1S,5R)-3-(tetrahydro-2H-pyran-4-yl)-3-azabicyclo[3.1.0]hexan-1-yl)phenyl)imidazo[1,2-b]pyridazin-3-yl)-1,8-naphthyridine], for which the IC50 against ALK2 (aa 147-end) is at most 1 nM.
For `c1ccc2c(-c3cnn4cc(-c5ccc(N6CCNCC6)cc5)cnc34)ccnc2c1` [LDN-19318917], in the assay with ALK2 mutant DIPG cell, the “inhibition of ALK2 mutant DIPG cell viability” value is “significant inhibition”.
Take `CCn1cnc(-c2ccc3c(-c4cnc5cc(-c6ccc([C@@]78C[C@@H]7CN(C7CCOCC7)C8)cc6)c(C)nn45)ccnc3n2)c1` [Example 1, 2-(1-Ethyl-1H-imidazol-4-yl)-5-(6-methyl-7-(4-((1R,5S)-3-(tetrahydro-2H-pyran-4-yl)-3-azabicyclo[3.1.0]hexan-1-yl)phenyl)imidazo[1,2-b]pyridazin-3-yl)-1,8-naphthyridine]: on ALK2 (aa 147-end), the IC50 is at most 1 nM.
`CCn1cnc(-c2ccc3c(-c4cnc5cc(-c6ccc(CN7CC8CCC7CC8)cc6)c(C)nn45)ccnc3n2)c1` [Example 2, 2-(4-(3-(7-(1-Ethyl-1H-imidazol-4-yl)-1,8-naphthyridin-4-yl)-6-methylimidazo[1,2-b]pyridazin-7-yl)benzyl)-2-azabicyclo[2.2.2]octane] had an IC50 at ALK2 (aa 147-end) of at most 1 nM.
